Laboratory results as given in PMC6720600, “Discovery of Novel TASK-3 Channel Blockers Using a Pharmacophore-Based Virtual Screening” (International Journal of Molecular Sciences, 2019).

Columns and labels:
Type in all cases: cell-based
TASK-1 [1] = target: T1, TASK-1 (Homo sapiens, UniProt O14649); test: dose-response of TASK-1 channel inhibition (electrophysiology; expression details for TASK-1 not given)
T1 construct: gene KCNK3

TASK-3 = target: T2, TASK-3 (Homo sapiens, UniProt Q9NPC2); test: whole-cell patch clamp, HEK-293 cells transfected with TASK-3
T2 construct: gene KCNK9
T2 sequence (Q9NPC2 whole entry): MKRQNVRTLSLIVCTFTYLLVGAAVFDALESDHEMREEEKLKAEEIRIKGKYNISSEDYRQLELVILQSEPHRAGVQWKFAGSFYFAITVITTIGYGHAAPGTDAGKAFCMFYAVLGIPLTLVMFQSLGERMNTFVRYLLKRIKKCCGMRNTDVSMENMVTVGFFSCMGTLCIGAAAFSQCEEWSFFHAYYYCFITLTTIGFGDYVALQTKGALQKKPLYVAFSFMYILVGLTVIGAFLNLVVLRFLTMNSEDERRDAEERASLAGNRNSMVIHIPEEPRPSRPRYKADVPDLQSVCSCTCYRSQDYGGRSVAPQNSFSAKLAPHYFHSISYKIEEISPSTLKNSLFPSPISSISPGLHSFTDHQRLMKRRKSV

TASK-1 [2] = target: T1, TASK-1; test: dose-response curve on human TASK-1 (electrophysiology; value not given)

T1 sequence (O14649 whole entry): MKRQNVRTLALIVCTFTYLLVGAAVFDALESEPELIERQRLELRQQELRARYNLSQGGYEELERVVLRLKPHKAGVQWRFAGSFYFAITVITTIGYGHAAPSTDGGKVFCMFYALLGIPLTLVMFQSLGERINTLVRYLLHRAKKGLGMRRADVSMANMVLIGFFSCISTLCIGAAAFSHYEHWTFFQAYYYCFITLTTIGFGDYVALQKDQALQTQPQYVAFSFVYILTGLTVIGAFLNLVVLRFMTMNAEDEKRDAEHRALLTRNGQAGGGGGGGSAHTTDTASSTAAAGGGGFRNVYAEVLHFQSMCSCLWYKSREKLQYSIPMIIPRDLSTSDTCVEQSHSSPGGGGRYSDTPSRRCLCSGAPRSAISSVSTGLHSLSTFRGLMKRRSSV

Row | IC50 (TASK-1 [1]) [µM] | IC50 (TASK-3) [µM] | Compound | IC50 (TASK-1 [2])
1 | 21.2 ± 5.5 | 14.2 ± 3.4 | CC(C(=O)Nc1ccc(O)cc1F)c1cc2cccc(NC(=O)c3ccc(O)cc3)c2o1 (stereo not shown) [DR16.1] | 
2 |  | 56.8 ± 3.9 | CC(C(=O)Nc1ccc(O)cc1F)c1cc2ccccc2o1 (stereo not shown) [DR16] | Lead ligand DR16 blocks human TASK channels.
